What was measured:
[1] = molecular target: T1, Receptor-type tyrosine-protein kinase FLT3 (Homo sapiens, UniProt P36888); assay: Inhibition of recombinant FLT3 (unknown origin) by TR-FRET assay
T1 sequence (P36888 whole entry): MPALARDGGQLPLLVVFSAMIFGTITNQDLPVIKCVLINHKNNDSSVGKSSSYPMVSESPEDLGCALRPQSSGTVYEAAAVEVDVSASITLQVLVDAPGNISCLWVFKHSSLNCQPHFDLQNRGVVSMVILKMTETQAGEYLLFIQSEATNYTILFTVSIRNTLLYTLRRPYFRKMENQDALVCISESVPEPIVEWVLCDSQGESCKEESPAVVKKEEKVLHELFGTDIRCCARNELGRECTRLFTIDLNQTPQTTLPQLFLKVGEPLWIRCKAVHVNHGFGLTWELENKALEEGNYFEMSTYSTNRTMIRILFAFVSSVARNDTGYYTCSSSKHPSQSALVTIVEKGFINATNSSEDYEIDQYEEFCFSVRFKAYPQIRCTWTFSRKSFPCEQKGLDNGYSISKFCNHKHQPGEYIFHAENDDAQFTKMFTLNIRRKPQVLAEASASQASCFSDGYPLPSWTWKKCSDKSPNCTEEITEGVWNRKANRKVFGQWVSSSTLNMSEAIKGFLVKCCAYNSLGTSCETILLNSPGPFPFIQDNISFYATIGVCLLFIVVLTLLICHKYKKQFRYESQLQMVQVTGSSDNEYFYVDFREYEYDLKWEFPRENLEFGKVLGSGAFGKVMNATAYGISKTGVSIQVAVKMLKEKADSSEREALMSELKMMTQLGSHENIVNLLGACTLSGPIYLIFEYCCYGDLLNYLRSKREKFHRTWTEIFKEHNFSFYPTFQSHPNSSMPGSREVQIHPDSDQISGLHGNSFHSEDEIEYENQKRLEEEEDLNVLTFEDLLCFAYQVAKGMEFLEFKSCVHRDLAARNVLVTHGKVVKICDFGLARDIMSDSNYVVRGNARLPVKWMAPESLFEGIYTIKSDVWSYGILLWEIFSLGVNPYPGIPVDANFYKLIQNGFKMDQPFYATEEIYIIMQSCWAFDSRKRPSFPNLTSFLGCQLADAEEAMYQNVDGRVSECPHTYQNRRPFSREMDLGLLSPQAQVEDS

[2] = Cytotoxicity against human RS4:11 cells harboring wild type FLT3 after 72 hrs by tetrazolium based Ez CyTox cell viability assay; assay type: functional; settings: RS4-11, 72 h
MV4-11 [3] = assay: Cytotoxicity against human MV4-11 cells harboring FLT3 mutation after 72 hrs by tetrazolium based Ez CyTox cell viability assay; assay type: functional; settings: MV4-11, 72 h
MV4-11 [4] = assay: Cell cycle arrest in human MV4-11 cells harboring FLT3 mutation assessed as accumulation at S phase at 1 uM after 48 hrs using propidium iodide staining by flow cytometry (reference value: 15.48%); assay type: functional
MV4-11 [5] = assay: Cell cycle arrest in human MV4-11 cells harboring FLT3 mutation assessed as accumulation at sub-G1 phase at 1 uM after 48 hrs using propidium iodide staining by flow cytometry (reference value: 3.86%); assay type: functional
MV4-11 [6] = assay: Cell cycle arrest in human MV4-11 cells harboring FLT3 mutation assessed as accumulation at G1 phase at 10 uM after 48 hrs using propidium iodide staining by flow cytometry (reference value: 69.69%); assay type: functional
MV4-11 [7] = assay: Cell cycle arrest in human MV4-11 cells harboring FLT3 mutation assessed as accumulation at G1 phase at 0.1 uM after 48 hrs using propidium iodide staining by flow cytometry (reference value: 69.69%); assay type: functional
MV4-11 [8] = assay: Cell cycle arrest in human MV4-11 cells harboring FLT3 mutation assessed as accumulation at S phase at 10 uM after 48 hrs using propidium iodide staining by flow cytometry (reference value: 15.48%); assay type: functional
MV4-11 [9] = assay: Cell cycle arrest in human MV4-11 cells harboring FLT3 mutation assessed as accumulation at G2/M phase at 10 uM after 48 hrs using propidium iodide staining by flow cytometry (reference value: 11.61%); assay type: functional
MV4-11 [10] = assay: Cell cycle arrest in human MV4-11 cells harboring FLT3 mutation assessed as accumulation at G2/M phase at 1 uM after 48 hrs using propidium iodide staining by flow cytometry (reference value: 11.61%); assay type: functional
MV4-11 [11] = assay: Cell cycle arrest in human MV4-11 cells harboring FLT3 mutation assessed as accumulation at S phase at 0.1 uM after 48 hrs using propidium iodide staining by flow cytometry (reference value: 15.48%); assay type: functional
MV4-11 [12] = assay: Cell cycle arrest in human MV4-11 cells harboring FLT3 mutation assessed as accumulation at sub-G1 phase at 10 uM after 48 hrs using propidium iodide staining by flow cytometry (reference value: 3.86%); assay type: functional
MV4-11 [13] = assay: Cell cycle arrest in human MV4-11 cells harboring FLT3 mutation assessed as accumulation at sub-G1 phase at 0.1 uM after 48 hrs using propidium iodide staining by flow cytometry (reference value: 3.86%); assay type: functional
MV4-11 [14] = assay: Cell cycle arrest in human MV4-11 cells harboring FLT3 mutation assessed as accumulation at G1 phase at 1 uM after 48 hrs using propidium iodide staining by flow cytometry (reference value: 69.69%); assay type: functional
MV4-11 [15] = assay: Cell cycle arrest in human MV4-11 cells harboring FLT3 mutation assessed as accumulation at G2/M phase at 0.1 uM after 48 hrs using propidium iodide staining by flow cytometry (reference value: 11.61%); assay type: functional

| Compound | IC50 [1] [µM] | GI50 [2] [µM] | GI50 (MV4-11 [3]) [µM] | other results |
| --- | --- | --- | --- | --- |
| O=c1c(OC2O[C@H](CO)[C@H](O)[C@H](O)[C@H]2O)c(-c2ccc(O)c(O)c2)oc2cc(O)cc(O)c12 (stereo not given in full) | > 10 |  |  |  |
| O=c1c(OC2O[C@H](CO)[C@@H](O)[C@H](O)[C@@H]2O)c(-c2ccc(O)c(O)c2)oc2cc(O)cc(O)c12 (stereo not given in full) | > 10 |  |  |  |
| O=c1cc(-c2ccc(O)cc2)oc2cc(O)cc(O)c12 [APIGENIN] | 1.45 | 27.9 | 2.81 |  |
| O=c1cc(-c2ccccc2)oc2cc(O)c(O)c(O)c12 [BAICALEIN] | > 10 |  |  |  |
| O=c1cc(-c2ccccc2)oc2cc(O)cc(O)c12 [CHRYSIN] | > 10 |  |  |  |
| O=C1c2c(O)cc(O)cc2O[C@H](c2ccc(O)cc2)[C@H]1O [DIHYDROKAEMPFEROL] | > 10 |  |  |  |
| O=C1C[C@@H](c2ccc(O)c(O)c2)Oc2cc(O)cc(O)c21 [ERIODICTYOL] | > 10 |  |  |  |
| O=c1c(O)c(-c2ccccc2)oc2cc(O)cc(O)c12 [GALANGIN] | > 10 |  |  |  |
| O=c1c(O[C@@H]2O[C@H](CO)[C@@H](O)[C@H](O)[C@H]2O)c(-c2ccc(O)c(O)c2)oc2cc(O)cc(O)c12 [ISOQUERCETIN] | > 10 |  |  |  |
| O=c1c(O)c(-c2ccc(O)cc2)oc2cc(O)cc(O)c12 [KAEMPFEROL] | 2.32 | > 50 | 3.34 |  |
| O=c1cc(-c2ccc(O)c(O)c2)oc2cc(O)cc(O)c12 [LUTEOLIN] | 0.83 | 7.25 | 1.76 | Activity (MV4-11 [4]): 12.8%; Activity (MV4-11 [5]): 16.42%; Activity (MV4-11 [6]): 66.68%; Activity (MV4-11 [7]): 71.25%; Activity (MV4-11 [8]): 2.09%; Activity (MV4-11 [9]): 0.51%; Activity (MV4-11 [10]): 4.2%; Activity (MV4-11 [11]): 10.5%; Activity (MV4-11 [12]): 30.76%; Activity (MV4-11 [13]): 13.71%; Activity (MV4-11 [14]): 67.08%; Activity (MV4-11 [15]): 4.9% |
| O=c1c(O)c(-c2cc(O)c(O)c(O)c2)oc2cc(O)cc(O)c12 [MYRICETIN] | 1.69 | > 50 | > 50 |  |
| O=C1C[C@@H](c2ccc(O)cc2)Oc2cc(O)cc(O)c21 [NARINGENIN] | > 10 |  |  |  |
| COc1c(O)cc2oc(-c3ccccc3)cc(=O)c2c1O [OROXYLIN A] | 1.48 | 40 | 5.59 |  |
| O=c1c(O)c(-c2ccc(O)c(O)c2)oc2cc(O)cc(O)c12 [QUERCETIN] | 0.59 | 21.6 | 13.1 |  |
| O=c1cc(-c2ccc(O)cc2)oc2cc(O)c(O)c(O)c12 [SCUTELLAREIN] | > 10 |  |  |  |

From ChEMBL document CHEMBL2331298, “Flavonoids as receptor tyrosine kinase FLT3 inhibitors” (Bioorg Med Chem Lett, 2013)
